Assay results as given in ChEMBL document CHEMBL1201862, “PubChem BioAssay data set” (2004).
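Five compound concentrations were applied to cells in 96-well plates for 48 hours; endpoints were derived by simple linear interpolation of the resulting dose-response curve. Here, GI50 denotes the concentration required for 50% inhibition of growth.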 The source made the active and inactive calls. No stated cut-off is given here; in the data, active = GI50 up to about 1.1 µM and inactive = higher.

Tests used:
Assay in all cases: NCI tumour cell line growth inhibition, 48 h
TK-10 = tested on: TK-10
UACC-257 = tested on: UACC-257
T47D = tested on: T47D
SR = tested on: SR
RXF 393 = tested on: RXF 393
RPMI-8226 = tested on: RPMI-8226
A549 = tested on: A549
EKVX = tested on: EKVX
IGROV-1 = tested on: IGROV-1
U-251 = tested on: U-251
UO-31 = tested on: UO-31
SK-OV-3 = tested on: SK-OV-3
OVCAR-4 = tested on: OVCAR-4
K562 = tested on: K562
MCF7 = tested on: MCF7
HCC 2998 = tested on: HCC 2998
HOP-92 = tested on: HOP-92
PC-3 = tested on: PC-3
ACHN = tested on: ACHN
CCRF-CEM = tested on: CCRF-CEM

Measured: GI50

CCCC[C@H]1C(=O)O[C@H](C)[C@H](NC(=O)c2cccc(NC=O)c2OC)C(=O)O[C@@H](C)[C@@H]1OC(=O)C(C)CC.CCCC[C@H]1C(=O)O[C@H](C)[C@H](NC(=O)c2cccc(NC=O)c2OC)C(=O)O[C@@H](C)[C@@H]1OC(=O)CC(C)C (stereo not given in full)
inactive: TK-10 12.9 µM | UACC-257 12.1 µM | T47D 14 µM | SR 14.5 µM | RXF 393 14.1 µM | RPMI-8226 10.2 µM | A549 10.3 µM | EKVX 11 µM | IGROV-1 7.1 µM | U-251 9.46 µM | UO-31 14.8 µM | SK-OV-3 12.5 µM | OVCAR-4 7.94 µM | K562 12.2 µM | MCF7 12.5 µM | HCC 2998 29 µM | HOP-92 6.98 µM | PC-3 9.42 µM | ACHN 10.8 µM | CCRF-CEM 3.32 µM

O=c1c2c3c(sc2nc2n1N=C(c1ccc(Cl)cc1)CS2)CCCC3
inactive: TK-10 > 100 µM | UACC-257 > 100 µM | T47D > 100 µM | SR > 100 µM | RXF 393 > 100 µM | RPMI-8226 > 100 µM | A549 > 100 µM | EKVX > 100 µM | IGROV-1 > 100 µM | U-251 > 100 µM | UO-31 > 100 µM | SK-OV-3 > 100 µM | OVCAR-4 > 100 µM | K562 > 100 µM | MCF7 > 100 µM | HCC 2998 > 100 µM | HOP-92 > 100 µM | PC-3 > 100 µM | ACHN > 100 µM | CCRF-CEM > 100 µM

CCCCC(=O)N/S(=N/C(=O)c1ccccc1)C(Cl)(Cl)Cl (stereo not given)
inactive: TK-10 > 100 µM | UACC-257 > 100 µM | T47D > 100 µM | SR > 100 µM | RXF 393 > 100 µM | RPMI-8226 > 100 µM | A549 > 100 µM | EKVX > 100 µM | IGROV-1 > 100 µM | U-251 > 100 µM | UO-31 > 100 µM | SK-OV-3 > 100 µM | OVCAR-4 > 100 µM | K562 > 100 µM | MCF7 > 100 µM | HCC 2998 > 100 µM | HOP-92 > 100 µM | PC-3 > 100 µM | ACHN > 100 µM | CCRF-CEM > 100 µM

CC(=O)NC1C(O)C(O)C(CO)OC1n1nc(SCc2ccccc2)c(=O)[nH]c1=O (stereo not given)
inactive: TK-10 > 100 µM | UACC-257 > 100 µM | T47D > 100 µM | SR > 100 µM | RXF 393 > 100 µM | RPMI-8226 > 100 µM | A549 > 100 µM | EKVX > 100 µM | IGROV-1 > 100 µM | U-251 > 100 µM | UO-31 > 100 µM | SK-OV-3 > 100 µM | OVCAR-4 > 100 µM | K562 > 100 µM | MCF7 > 100 µM | HCC 2998 > 100 µM | HOP-92 > 100 µM | PC-3 > 100 µM | ACHN > 100 µM | CCRF-CEM > 100 µM
